Data taken from US5141929A, “Lipophilic ethers and/or esters of D-desosamine and their compositions as anti-bacteria and anti-fungus agents” (Societe Anonyme dite: L'Oreal, priority 1988, dated 1992).
In brackets after ≈: the same amount, converted by molar mass. Where two headings read alike, the source gives them in different places.

Key:
[1] = system: propionibacterium Acnes P37; assay: MIC by dilution method, Propionibacterium acnes strain P37; assay type: cell-based; settings: for MIC: Cutibacterium acnes
Source text: (§1) The activity of the esters and/or ethers of D-desosamine has been studied by the dilution method to determine the minimum inhibiting concentration (MIC) This method is described and employed by G.A. Denys et al, Antimicrobial Agents and Chemotherapy (1983) 23, 335-337 and J.J. Leyden et al, J. Am. Acad. Dermatol. (1983) 8 (1) 41-5, by using as the procionibacterium acnes strain, strain P37 furnished by Cunliffe and Holland.
This P37 strain has been the object of studies described in the following publications:
(§2) The minimum inhibiting concentration (MIC), expressed in μg/ml of the esters and/or ethers of D-desosamine tested vis-a-vis strains of propionibacterium Acnes P37, P37E⊕ and P37E⊖ and staphilococcus epidermidis ATCC 12228, is reported in the following Table I.

P37 E⊖ (resistant) = assay: MIC by dilution method, erythromycin-resistant P. acnes strain P37 E⊖; assay type: cell-based, propionibacterium acnes; settings: for MIC: Cutibacterium acnes
Source text: as §1
(§3) On the other hand, after 8 successive sub-cultures in the same medium (RCM* 19/20, DMSO […] by volume) with the view of obtaining a progressive stabilization of this strain in this medium, a progressive resistance to erythromycin was manifested in the following form:
(§4) after spreading a standardized inoculum (DO=1.8 at 450 nm) on a gelose medium (RCM+furazolidone), in a Petri dish, a 9 mm diameter disc is deposited at its center. On the disc, 50 μg of erythromycin (in solution in DMSO) are deposited.
(§5) After 6 days at 36° C. in an anerobic medium (GAS-PAK, B.B.L. system) an inhibition zone of the growth of the strain is clearly visible (total diameter=42 mm), the majority of the colonies being situated at the periphery of the inhibition zone.
(§6) The two types of colonies are then retained by stripping of the gelose medium (sterilized platinum loop):
(§7) (1) at the interior of the inhibition zone there are stripped off strains, called P37 E⊖ by reason of their apparent resistance to erythromycin.
(§8) After isolation and culturing, the P37 E⊕ and P37 E⊖ strains effectively show very different sensitivities to erythromycin as illustrated by the following respective MIC values.
as §2

P37 E⊕ (sensitive) = assay: MIC by dilution method, erythromycin-sensitive P. acnes strain P37 E⊕; assay type: cell-based, propionibacterium acnes; settings: for MIC: Cutibacterium acnes
Source text: as §1, §3, §4, §5, §6
(§9) (2) at 1 cm beyond the periphery of the inhibition zone, there are stripped off strains called P37 E⊕.
as §8, §2

[2] = system: staphilococcus epidermidis ATCC 12228; assay: MIC by dilution method, staphilococcus epidermidis ATCC 12228; assay type: cell-based; settings: Table I; for MIC: read-out: minimum inhibiting concentration (MIC), ATCC 12228
Source text: as §1, §2

P37 [3] = assay: IC 50 (50% survivors at constant culturing time), strain P37; assay type: cell-based, propionibacterium acnes; settings: Cutibacterium acnes, read-out: IC 50 (inhibiting concentration at 50%), P37
Source text: (§10) This phenomenon is confirmed by the study of the IC 50 (inhibiting concentration at 50%) which represents the concentration of erythromycin where, at a constant culturing time, 50% survivors among the population are found.

P37 E⊕ = assay: IC 50 (50% survivors at constant culturing time), strain P37 E⊕; assay type: cell-based, propionibacterium acnes; settings: Cutibacterium acnes, read-out: IC 50 (inhibiting concentration at 50%), P37 E⊕
Source text: as §9, §10

P37 [4] = assay: Disc diffusion inhibition zone on gelose medium, sub-cultured strain P37; assay type: cell-based, propionibacterium acnes; settings: Cutibacterium acnes, 144 h, read-out: inhibition zone of the growth of the strain, total diameter
Description: as §3, §4, §5

P37 E⊖ = assay: IC 50 (50% survivors at constant culturing time), strain P37 E⊖; assay type: cell-based, propionibacterium acnes; settings: Cutibacterium acnes, read-out: IC 50 (inhibiting concentration at 50%), P37 E⊖
Source text: as §7, §10

[5] = ACNESP37, Table I, P. acnes P37, read-out: minimum inhibiting concentration (MIC), P37
[6] = read-out: minimum inhibiting concentration (MIC), P37 E⊖ (resistant)
[7] = Table I, erythromycin-sensitive, read-out: minimum inhibiting concentration (MIC), P37 E⊕ (sensitive)

Molecule: CCCCCCCCCC(=O)O[C@H]1C(OCCCC)O[C@H](C)C[C@@H]1N(C)C (stereo partly drawn) [Compound 1, O-decanoyl-2-O-butyl-1-α,β-D-desosamine]
- MIC [1, 5]: 9 µg/mL (≈ 23.3 µM)
- MIC (P37 E⊖ (resistant); [6]): 3.2 µg/mL (≈ 8.3 µM)
- MIC (P37 E⊕ (sensitive); [7]): 9 µg/mL (≈ 23.3 µM)
- MIC [2]: 5 µg/mL (≈ 13 µM)

Molecule: CCCCCCCCCCCC(=O)O[C@H]1C(OCCCC)O[C@H](C)C[C@@H]1N(C)C (stereo partly drawn) [Compound 2, O-dodecanoyl-2-O-butyl-1-α,β-D-desosamine]
- MIC [1, 5]: 0.4 µg/mL (≈ 0.967 µM)
- MIC (P37 E⊖ (resistant); [6]): 0.9 µg/mL (≈ 2.18 µM)
- MIC (P37 E⊕ (sensitive); [7]): 0.6 µg/mL (≈ 1.45 µM)
- MIC [2]: 3.5 µg/mL (≈ 8.46 µM)

Molecule: CCCCCCCCCCCC(=O)O[C@H]1[C@H](OCCCC)O[C@H](C)C[C@@H]1N(C)C [Compound 3, O-dodecanoyl-2-O-butyl-1-β-D-desosamine]
- MIC [1, 5]: 15 µg/mL (≈ 36.3 µM)
- MIC (P37 E⊖ (resistant); [6]): 1.9 µg/mL (≈ 4.59 µM)
- MIC (P37 E⊕ (sensitive); [7]): 0.1 µg/mL (≈ 0.242 µM)

Molecule: CCCCCCCCCCCC(=O)O[C@H]1C(OC)O[C@H](C)C[C@@H]1N(C)C (stereo partly drawn) [Compound 4, O-dodecanoyl-2-O-methyl-1-α,β-D-desosamine]
- MIC [1, 5]: 25 µg/mL (≈ 67.3 µM)
- MIC (P37 E⊕ (sensitive); [7]): 15 µg/mL (≈ 40.4 µM)
- MIC [2]: 3.8 µg/mL (≈ 10.2 µM)

Molecule: CCCCCCCCCCCC(=O)O[C@H]1[C@@H](OC)O[C@H](C)C[C@@H]1N(C)C [Compound 5, O-dodecanoyl-2-O-methyl-1-α-D-desosamine]
- MIC [1, 5]: 50 µg/mL (≈ 135 µM)
- MIC (P37 E⊕ (sensitive); [7]): 50 µg/mL (≈ 135 µM)
- MIC [2]: 3.2 µg/mL (≈ 8.61 µM)

Molecule: CCCCC/C=C\C/C=C\CCCCCCCC(=O)O[C@H]1C(OCCCC)O[C@H](C)C[C@@H]1N(C)C (stereo partly drawn) [Compound 6, O-linoleoyl-2-O-butyl-1-α,β-D-desosamine]
- MIC [1, 5]: 0.4 µg/mL (≈ 0.81 µM)
- MIC (P37 E⊖ (resistant); [6]): 0.8 µg/mL (≈ 1.62 µM)
- MIC (P37 E⊕ (sensitive); [7]): 0.7 µg/mL (≈ 1.42 µM)
- MIC [2]: 0.2 µg/mL (≈ 0.405 µM)

Molecule: CCCCC/C=C\C/C=C\CCCCCCCC(=O)O[C@H]1[C@@H](OCCCC)O[C@H](C)C[C@@H]1N(C)C [Compound 7, O-linoleoyl-2-O-butyl-1-α-D-desosamine]
- MIC [1, 5]: 0.15 µg/mL (≈ 0.304 µM)
- MIC (P37 E⊕ (sensitive); [7]): 1.1 µg/mL (≈ 2.23 µM)
- MIC [2]: 1.1 µg/mL (≈ 2.23 µM)

Molecule: CCCCCCCCCCCCCCCCCCO[C@H]1C(OCCCC)O[C@H](C)C[C@@H]1N(C)C (stereo partly drawn) [Compound 8, O-octadecyl-2-O-butyl-1-α,β-D-desosamine]
- MIC [1, 5]: 0.25 µg/mL (≈ 0.517 µM)
- MIC (P37 E⊖ (resistant); [6]): 8.8 µg/mL (≈ 18.2 µM)
- MIC (P37 E⊕ (sensitive); [7]): < 0.03 µg/mL
- MIC [2]: 2.2 µg/mL (≈ 4.55 µM)

Molecule: CCCCCCCCCCCCCCCCCCO[C@H]1[C@@H](OCCCC)O[C@H](C)C[C@@H]1N(C)C [Compound 9, O-octadecyl-2-O-butyl-1-α-D-desosamine]
- MIC [1, 5]: 0.1 µg/mL (≈ 0.207 µM)
- MIC (P37 E⊖ (resistant); [6]): 27.5 µg/mL (≈ 56.8 µM)
- MIC (P37 E⊕ (sensitive); read-out: minimum inhibiting concentration (MIC), P37 E⊕ (sensitive)): 27.5 µg/mL (≈ 56.8 µM)
- MIC [2]: 0.8 µg/mL (≈ 1.65 µM)

Molecule: CCCCCCCCCCCCCCCCCCO[C@H]1[C@H](OCCCC)O[C@H](C)C[C@@H]1N(C)C [Compound 10]
- MIC [1, 5]: 3.12 µg/mL (≈ 6.45 µM)
- MIC (P37 E⊖ (resistant); [6]): 1.56 µg/mL (≈ 3.22 µM)
- MIC (P37 E⊕ (sensitive); [7]): 0.09 µg/mL (≈ 0.186 µM)
- MIC [2]: 0.04 µg/mL (≈ 0.0827 µM)

Molecule: CCCCCCCCCCCO[C@H]1C(OCCCCCCCCCC)O[C@H](C)C[C@@H]1N(C)C (some centres unmarked) [Compound 11]
- MIC [1, 5]: 4 µg/mL (≈ 8.51 µM)
- MIC (P37 E⊖ (resistant); [6]): 0.8 µg/mL (≈ 1.7 µM)
- MIC (P37 E⊕ (sensitive); [7]): 0.7 µg/mL (≈ 1.49 µM)
- MIC [2]: 0.7 µg/mL (≈ 1.49 µM)

Molecule: CCCCCCCCCCCO[C@H]1[C@@H](OCCCCCCCCCC)O[C@H](C)C[C@@H]1N(C)C [Compound 12]
- MIC [1, 5]: 1.8 µg/mL (≈ 3.83 µM)
- MIC (P37 E⊖ (resistant); [6]): 0.8 µg/mL (≈ 1.7 µM)
- MIC (P37 E⊕ (sensitive); [7]): 1 µg/mL (≈ 2.13 µM)
- MIC [2]: 0.8 µg/mL (≈ 1.7 µM)

Molecule: CCCCCCCCCCCO[C@H]1[C@H](OCCCCCCCCCC)O[C@H](C)C[C@@H]1N(C)C [Compound 13]
- MIC [1, 5]: 1 µg/mL (≈ 2.13 µM)
- MIC (P37 E⊖ (resistant); [6]): 0.02 µg/mL (≈ 0.0426 µM)
- MIC (P37 E⊕ (sensitive); [7]): 0.5 µg/mL (≈ 1.06 µM)
- MIC [2]: 0.06 µg/mL (≈ 0.128 µM)

Molecule: CCCCCCCCOC1O[C@H](C)C[C@H](N(C)C)[C@H]1OCCCCCCCC (stereo partly drawn) [Compound 14, di-O-octyl-1,2-α,β-D-desosamine]
- MIC [1, 5]: 0.5 µg/mL (≈ 1.25 µM)
- MIC (P37 E⊖ (resistant); [6]): 0.1 µg/mL (≈ 0.25 µM)
- MIC (P37 E⊕ (sensitive); [7]): 0.6 µg/mL (≈ 1.5 µM)
- MIC [2]: 0.5 µg/mL (≈ 1.25 µM)

Molecule: CCCCCCCCO[C@H]1O[C@H](C)C[C@H](N(C)C)[C@H]1OCCCCCCCC [Compound 15, di-O-octyl-1,2-α-D-desosamine]
- MIC [1, 5]: 1.8 µg/mL (≈ 4.5 µM)
- MIC (P37 E⊖ (resistant); [6]): 0.4 µg/mL (≈ 1 µM)
- MIC (P37 E⊕ (sensitive); [7]): 1 µg/mL (≈ 2.5 µM)
- MIC [2]: 0.3 µg/mL (≈ 0.751 µM)

Molecule: CCCCCCCCO[C@@H]1O[C@H](C)C[C@H](N(C)C)[C@H]1OCCCCCCCC [Compound 16, di-O-octyl-1,2-β-D-desosamine]
- MIC [1, 5]: 0.7 µg/mL (≈ 1.75 µM)
- MIC (P37 E⊖ (resistant); [6]): 0.15 µg/mL (≈ 0.375 µM)
- MIC (P37 E⊕ (sensitive); [7]): 0.3 µg/mL (≈ 0.751 µM)
- MIC [2]: 1.2 µg/mL (≈ 3 µM)

Molecule: CCCCCCCCCCCCC(CCCCCCCCCC)CO[C@H]1C(OCCCC)O[C@H](C)C[C@@H]1N(C)C (stereo partly drawn) [Compound 17, O-(2-decyl)-tetradecyl-2-O-butyl-1-α,β-D-desosamine]
- MIC [1, 5]: 12.5 µg/mL (≈ 22 µM)
- MIC (P37 E⊖ (resistant); [6]): 6 µg/mL (≈ 10.6 µM)
- MIC (P37 E⊕ (sensitive); [7]): 11 µg/mL (≈ 19.4 µM)

Molecule: CC[C@H]1OC(=O)[C@H](C)[C@@H](O[C@H]2C[C@@](C)(OC)[C@@H](O)[C@H](C)O2)[C@H](C)[C@@H](O[C@@H]2O[C@H](C)C[C@H](N(C)C)[C@H]2O)[C@](C)(O)C[C@@H](C)C(=O)[C@H](C)[C@@H](O)[C@]1(C)O [erythromycin]
- IC50 (P37 [3]): 50 µg/mL (≈ 68.1 µM)
- MIC ([1]; ACNESP37, read-out: minimum inhibiting concentration (MIC), P37): 0.78 µg/mL (≈ 1.06 µM)
- IC50 (P37 E⊕): 5 µg/mL (≈ 6.81 µM)
- zone of inhibition at 50 µg/disc (P37 [4]): 42 mm
- MIC (P37 E⊖ (resistant); read-out: MIC, P37 E⊖): 50 µg/mL (≈ 68.1 µM)
- IC50 (P37 E⊖): 100 µg/mL (≈ 136 µM)
- MIC (P37 E⊕ (sensitive); read-out: MIC, P37 E⊕): 0.78 µg/mL (≈ 1.06 µM)

Molecule: O-dodecanoyl-2'-erythralosamine [Compound 18]
- minimum inhibiting concentration (MIC), P37 ([1]; Table I, P. acnes P37): 0.4 µg/mL
- minimum inhibiting concentration (MIC), P37 E⊖ (resistant) (P37 E⊖ (resistant); Table I, erythromycin-resistant): 0.4 µg/mL
- minimum inhibiting concentration (MIC), P37 E⊕ (sensitive) (P37 E⊕ (sensitive); Table I, erythromycin-sensitive): 12.5 µg/mL
- minimum inhibiting concentration (MIC), ATCC 12228 [2]: 1.5 µg/mL
